# Tested on: Hepatitis C replicon in Huh-7 cells
# Assay: HCV replicon replication assay (NPT ELISA)
# Type: cell-based
# Settings: Hepatitis C virus, Huh-7, 72 h
# Experimental: Compounds claimed herein are tested for the ability to inhibit viral replication of the Hepatitis C replicon in cultured cells in which the HCV replicon construct has been incorporated. The HCV replicon system was described by Bartenschlager, et. al (Science, 285, pp. 110-113 (1999)). The replicon system is predictive of in vivo anti-HCV activity; compounds that are active in humans uniformly evidence activity in the replicon assay.
# In this assay HCV replicon containing cells are treated with different concentrations of the test compound to ascertain the ability of the test compound to suppress replication of the HCV replicon. As a positive control, HCV replicon-containing cells are treated with different concentrations of interferon alpha, a known inhibitor of HCV replication. The replicon assay system includes Neomycin Phosphotransferase (NPT) as a component of the replicon itself in order to detect the transcription of replicon gene products in the host cell. Cells in which the HCV replicon is actively replicating have high levels of NPT; the level of NPT is proportional to HCV replication. […] The NPT level of each sample is measured using a captured ELISA.
# A protocol for testing compounds for the ability to inhibit viral replication of the Hepatitis C replicon cultured cells in which the replicon construct has been incorporated, follows.
# The HCV replicon contains, 5′-3′, the HCV-IRES, the neomycin phosphotransferase (neo) gene, the IRES of encephalomyocarditis virus, which directs translation of HCV sequences NS3 to NS5B, and the 3′-NTR. The sequence of the HCV replicon has been deposited in GenBank (Accession no. AJ242652).
# The replicon is transfected into Huh-7 cells using standard methods such as electroporation.
# The cells are then seeded onto 96-well plates at a density of 6000-7500 cells/100 microliters/well (6-7.5×10^5 cells/10 ml/plate). The plates are then incubated at 37° C. in a 5% CO2 incubator.
# HCV replicon-containing cells are rinsed with once PBS once; 2 mls of trypsin are then added. Cells are incubated at 37° C. in a 5% CO2 incubator for 3-5 minutes. 10 mls of complete medium is added to stop the reaction. Cells are blown gently, put into a 15 ml tube, and spun at 1200 rpm for four minutes. The trypsin/medium solution is removed and 5 mls of medium (500 ml DMEM (high glucose)) from BRL catalog #12430-054; 50 mls 10% FBS, 5% Geneticin G418 (50 mg/ml, BRL catalog #10131-035), 5 ml MEM non-essential amino acids (100×BRL #11140-050) and 5 ml pen-strep (BRL #15140-148) is added. The cells and media are mixed carefully
# Cells are plated with screening medium (500 ml DMEM (BRL #21063-029), 50 ml FBS (BRL #10082-147) and 5 ml MEM non-essential amino acid (BRL #11140-050) at 6000-7500 fcells/100 μl/well of 96 well plate (6-7.5×10^5 cells/10 ml/plate). Plates are placed into 37° C. 5% CO2 incubator overnight.
# The following morning, drugs (test compounds or interferon alpha) are diluted in 96 well U bottom plates with media or DMSO/media, depending on the final concentration chosen for screening. Generally for 6 concentrations of each test compounds ranging from 10 micromolar to 0.03 micromolar are applied. 100 μl of the test compound dilution is placed in wells of the 96 well plate containing the HCV replicon cells. Media without drug is added to some wells as a negative controls. DMSO is known to affect cell growth. Therefore, if drugs diluted in DMSO are used, all wells, including negative control (media only) and positive control (interferon alpha) wells, must contain the same concentration of DMSO, for single dose screening. The plates are incubated at 37° C. in a humidified 5% CO2 environment for three days.
# On day four, the NTPII assay is quantitated. The medium is poured from the plates and the plates are washed once in 200 μl of PBS. The PBS is then decanted and the plates tapped in a paper towel to remove any remaining PBS. […]
row,Compound,EC50
1,"C=CC1CC1(NC(=O)[C@@H]1C[C@@H](Oc2cc(-c3ccccc3)nc3cc(OC)ccc23)CN1C(=O)[C@@H](CC(=O)N1CCC(O)C1)C(C)(C)C)C(=O)O (stereo partly drawn) [Compound 42, 1-((2S,4R)-1-((2S)-2-tert-butyl-4-(3-hydroxypyrrolidin-1-yl)-4-oxobutanoyl)-4-(7-methoxy-2-phenylquinolin-4-yloxy)pyrrolidine-2-carboxamido)-2-vinylcyclopropanecarboxylic acid]",> 10 µM
2,"C=CC1CC1(NC(=O)[C@@H]1C[C@@H](Oc2cc(-c3ccccc3)nc3cc(OC)ccc23)CN1C(=O)[C@@H](CC(=O)N1CCCC1)C(C)(C)C)C(=O)OCC (stereo partly drawn) [Compound 39, ethyl 1-((2S,4R)-1-((S)-2-tert-butyl-4-oxo-4-(pyrrolidin-1-yl)butanoyl)-4-(7-methoxy-2-phenylquinolin-4-yloxy)pyrrolidine-2-carboxamido)-2-vinylcyclopropanecarboxylate]",> 10 µM
3,"C=CC1CC1(NC(=O)[C@@H]1C[C@@H](Oc2cc(-c3ccccc3)nc3cc(OC)ccc23)CN1C(=O)[C@@H](CC(=O)N1CCCCC1C(N)=O)C(C)(C)C)C(=O)OCC (stereo partly drawn) [Compound 45, ethyl 1-((2S,4R)-1-((2S)-2-tert-butyl-4-(2-carbamoylpiperidin-1-yl)-4-oxobutanoyl)-4-(7-methoxy-2-phenylquinolin-4-yloxy)pyrrolidine-2-carboxamido)-2-vinylcyclopropanecarboxylate]",1 to 10 µM
